Measurements as given in ChEMBL document CHEMBL4602703, “Lead Optimization of a Pyrrole-Based Dihydroorotate Dehydrogenase Inhibitor Series for the Treatment of Malaria” (J Med Chem, 2020).
Values after ≈ are worked out from the molar mass of the structure shown.

How the values were obtained:
[1] = Cmax in NOD-SCID IL2Rgamma null mouse blood infected with Plasmodium falciparum 3D70087/N9 at 10 mg/kg, po qd for 4 days starting from 3 days post infection and measured after 24 hrs post dose by LC-MS/MS analysis; type: ADME, organism-based; design: dose 10 mg/kg, route oral
[2] = Clearance in Sprague-Dawley rat plasma at […], iv administered as infusion for 10 mins and measured up to 24 hrs by LC-MS analysis; type: ADME, organism-based; details: in vivo
[3] = test system: Plasmodium falciparum
[4] = Apparent half life in Sprague-Dawley rat at 33 mg/kg, po administered via gavage measured up to 24 hrs by LC-MS analysis; type: ADME, organism-based; details: in vivo
[5] = fAUC in Plasmodium falciparum 3D70087/N9 infected po dosed NOD-SCID IL2Rgamma null mouse blood administered once daily for 4 days; type: ADME, organism-based; details: in vivo, 96 h
[6] = Apparent half life in Sprague-Dawley rat at 3 mg/kg, po administered via gavage measured up to 24 hrs by LC-MS analysis; type: ADME, organism-based; details: in vivo
[7] = Toxicity in Plasmodium falciparum 3D70087/N9 infected NOD-SCID IL2Rgamma null mouse at 50 mg/kg, po administered once daily for 4 days measured 24 hrs post dose; type: organism-based; details: in vivo
[8] = Protein binding in mouse plasma by LC-MS analysis based ultracentrifugation assay; type: ADME, cell-free; details: read-out: PPB (converted)
[9] = AUC (0 to infinity) in Sprague-Dawley rat at 33 mg/kg, po administered via gavage measured up to 24 hrs by LC-MS analysis; type: ADME, organism-based; design: dose 33 mg/kg, time infinity, route oral; details: in vivo
[10] = Cmax in NOD-SCID IL2Rgamma null mouse blood infected with Plasmodium falciparum 3D70087/N9 at 50 mg/kg, po qd for 4 days starting from 3 days post infection and measured after 24 hrs post dose by LC-MS/MS analysis
[11] = Toxicity in Plasmodium falciparum 3D70087/N9 infected NOD-SCID IL2Rgamma null mouse assessed as death at 10 mg/kg, po administered once daily for 4 days measured 24 hrs post dose; type: organism-based; details: in vivo
[12] = AUC (0 to infinity) in Swiss mouse at 50 mg/kg, po via gavage measured up to 24 hrs by UPLC-MS analysis; type: ADME, organism-based; design: dose 50 mg/kg, route oral, time infinity; details: in vivo
[13] = Oral bioavailability in Swiss mouse at 50 mg/kg dosed via gavage measured up to 24 hrs by UPLC-MS analysis; type: ADME, organism-based; details: in vivo
[14] = biological target: T1, Cytochrome P450 1A2 (Homo sapiens, UniProt P05177); test: Time-dependent inhibition of CYP1A2 in human liver microsomes using phenacetin as substrate in presence of NADPH regenerating system by UPLC-MS analysis; type: ADME
T1 sequence (P05177 whole entry): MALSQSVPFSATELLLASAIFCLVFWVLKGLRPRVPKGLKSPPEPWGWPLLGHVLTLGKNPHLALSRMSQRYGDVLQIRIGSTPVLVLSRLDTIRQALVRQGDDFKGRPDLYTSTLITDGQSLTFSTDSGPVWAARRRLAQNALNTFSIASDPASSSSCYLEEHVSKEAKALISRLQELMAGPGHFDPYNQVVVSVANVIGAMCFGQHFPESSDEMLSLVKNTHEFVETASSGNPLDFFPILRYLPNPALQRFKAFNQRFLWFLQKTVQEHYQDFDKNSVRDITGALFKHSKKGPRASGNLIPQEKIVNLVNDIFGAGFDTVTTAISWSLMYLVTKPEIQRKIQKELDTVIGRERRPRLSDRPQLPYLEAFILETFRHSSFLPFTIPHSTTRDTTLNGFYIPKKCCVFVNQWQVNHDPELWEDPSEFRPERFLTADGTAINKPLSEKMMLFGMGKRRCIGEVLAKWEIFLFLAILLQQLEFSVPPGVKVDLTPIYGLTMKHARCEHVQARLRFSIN

[15] = biological target: Albumin (Homo sapiens, UniProt P02768); test: Binding affinity to albumin (unknown origin) in ALBUMAX medium; type: ADME; details: read-out: PB (converted)
[16] = simulated gi fluid, pH 5.8
[17] = Intrinsic clearance in human liver microsomes assessed as per mg protein; type: ADME, Microsome
[18] = Intrinsic clearance in liver microsomes assessed as per mg protein; details: read-out: CLH
[19] = AUC (0 to infinity) in Swiss mouse blood at 18.3 mg/kg, po via gavage measured up to 24 hrs by UPLC-MS analysis; type: ADME, organism-based; design: dose 18.3 mg/kg, route oral, time infinity; details: in vivo
[20] = Cmax in Swiss mouse at 10.5 mg/kg, po via gavage measured up to 24 hrs by UPLC-MS analysis; type: ADME, organism-based; design: dose 10.5 mg/kg, route oral; details: in vivo
[21] = Protein binding in rat plasma by LC-MS analysis based ultracentrifugation assay; type: ADME, cell-free; details: read-out: PPB (converted)
[22] = biological target: T2, Cytochrome P450 2D6 (Homo sapiens, UniProt P10635); test: Time-dependent inhibition of CYP2D6 in human liver microsomes using dextromethorphan as substrate in absence of NADPH regenerating system by UPLC-MS analysis; type: ADME
[23] = Apparent half life in Swiss mouse at 18.3 mg/kg, po via gavage measured up to 24 hrs by UPLC-MS analysis; type: ADME, organism-based; details: in vivo
[24] = AUC (0 to 23 hrs) in NOD-SCID IL2Rgamma null mouse blood infected with Plasmodium falciparum 3D70087/N9 at 10 mg/kg, po qd for 4 days starting from 3 days post infection and measured after 24 hrs post dose by LC-MS/MS analysis; type: ADME, organism-based; design: dose 10 mg/kg, time < 23 hr, route oral
[25] = biological target: T1, Cytochrome P450 1A2; test: Time-dependent inhibition of CYP1A2 in human liver microsomes using phenacetin as substrate in absence of NADPH regenerating system by UPLC-MS analysis; type: ADME
[26] = biological target: T2, Cytochrome P450 2D6; test: Inhibition of CYP2D6 in human liver microsomes using dextromethorphan as substrate measured for 10 to 30 mins in presence of NADPH regenerating system by UPLC-MS analysis; type: ADME
[27] = Apparent half life in Swiss mouse at […], iv administered as bolus dose measured up to 24 hrs by UPLC-MS analysis; type: ADME, organism-based; details: in vivo
[28] = AUC (0 to 23 hrs) in NOD-SCID IL2Rgamma null mouse blood infected with Plasmodium falciparum 3D70087/N9 at 50 mg/kg, po qd for 4 days starting from 3 days post infection and measured after 24 hrs post dose by LC-MS/MS analysis; type: ADME, organism-based; design: dose 50 mg/kg, time < 23 hr, route oral
[29] = biological target: CYP3A4/5 (Homo sapiens, UniProt P08684+P20815); test: in vitro; details: liver microsomes, probe testosterone
[30] = physchem; details: octanol/water, pH 7.4
[31] = Cmax in Swiss mouse blood at 10.5 mg/kg, po via gavage measured up to 24 hrs by UPLC-MS analysis; details: in vivo
[32] = Cmax in Swiss mouse blood at 50 mg/kg, po via gavage measured up to 24 hrs by UPLC-MS analysis; type: ADME, organism-based; design: dose 50 mg/kg, route oral; details: in vivo
[33] = AUC (0 to infinity) in Swiss mouse blood at 50 mg/kg, po via gavage measured up to 24 hrs by UPLC-MS analysis; type: ADME, organism-based; design: dose 50 mg/kg, time infinity, route oral; details: in vivo
[34] = simulated gi fluid, pH 6.5

T2 sequence (P10635 whole entry): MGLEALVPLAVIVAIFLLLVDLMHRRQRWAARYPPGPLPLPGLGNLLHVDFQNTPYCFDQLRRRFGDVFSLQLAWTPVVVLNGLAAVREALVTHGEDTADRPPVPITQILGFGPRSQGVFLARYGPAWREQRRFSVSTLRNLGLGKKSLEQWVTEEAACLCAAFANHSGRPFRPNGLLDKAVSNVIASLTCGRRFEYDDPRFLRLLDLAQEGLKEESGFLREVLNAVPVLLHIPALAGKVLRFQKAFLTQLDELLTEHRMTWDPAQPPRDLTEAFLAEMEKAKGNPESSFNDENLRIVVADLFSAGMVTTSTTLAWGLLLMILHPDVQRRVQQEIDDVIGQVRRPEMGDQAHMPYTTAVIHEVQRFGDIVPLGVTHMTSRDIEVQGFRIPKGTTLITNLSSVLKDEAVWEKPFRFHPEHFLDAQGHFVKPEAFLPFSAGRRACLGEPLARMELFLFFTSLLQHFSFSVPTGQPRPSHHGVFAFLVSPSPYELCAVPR
Albumin, sequence (P02768 whole entry): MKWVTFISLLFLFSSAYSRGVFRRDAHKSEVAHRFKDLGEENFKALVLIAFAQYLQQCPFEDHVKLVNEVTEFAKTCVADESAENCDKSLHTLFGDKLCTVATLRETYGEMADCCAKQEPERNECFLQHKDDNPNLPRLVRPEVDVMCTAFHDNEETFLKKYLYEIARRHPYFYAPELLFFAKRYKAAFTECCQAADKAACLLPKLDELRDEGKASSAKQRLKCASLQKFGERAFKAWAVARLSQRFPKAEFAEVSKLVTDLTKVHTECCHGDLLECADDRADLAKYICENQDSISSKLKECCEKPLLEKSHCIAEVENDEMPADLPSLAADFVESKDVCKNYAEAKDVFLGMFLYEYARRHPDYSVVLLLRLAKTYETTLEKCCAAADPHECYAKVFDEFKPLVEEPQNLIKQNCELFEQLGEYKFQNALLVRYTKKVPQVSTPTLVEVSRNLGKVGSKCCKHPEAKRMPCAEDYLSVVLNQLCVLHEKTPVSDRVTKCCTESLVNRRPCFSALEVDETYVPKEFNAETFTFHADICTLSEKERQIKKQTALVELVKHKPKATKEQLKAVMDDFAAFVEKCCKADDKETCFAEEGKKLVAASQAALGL

Cc1c(Cc2ccc(C(F)(F)F)nc2)c[nH]c1C(=O)NC1CC1
Cmax [1]: 600 nM
clearance [2]: 28.6 mL/min/kg
fEC50 [3]: 0.0077 µM
t1/2(app) [4]: 2.8 h
fAUC [5]: 1.1 µg·h/mL
t1/2(app) [6]: 3.9 h
Activity [7]: Toxic
fraction unbound [8]: 0.111
AUC [9]: 204 µM·h
Cmax [10]: 7.81 µM
Activity [11]: Toxic
AUC [12]: 220 µM·h
F [13]: > 100%
TDI [14]: Not Active
fraction unbound [15]: 0.482
solubility [16]: 115 µg/mL (≈ 356 µM)
microsomal CLint [17]: 10 µL/min/mg
microsomal CLint [18]: 24 µL/min/mg
AUC [19]: 44.5 µM·h
Cmax [20]: 4.6 µM
fraction unbound [21]: 0.118
TDI [22]: Active
t1/2(app) [23]: 2.6 h
AUC at 23 h [24]: 2.1 µM·h
TDI [25]: Not Active
IC50 [26]: > 20 µM
t1/2(app) [27]: 2.8 h
AUC at 23 h [28]: 26.7 µM·h
IC50 [29]: > 20 µM
logD [30]: 2.8
Cmax [31]: 3.7 µM
Cmax [32]: 33.8 µM
AUC [33]: 176 µM·h
solubility [34]: 60.1 µg/mL (≈ 186 µM)
